# Data as given in patent US20240217967A1, “INDOLINE DERIVATIVES AS DDRS INHIBITORS” (CHIESI FARMACEUTICI S.P.A., priority 2021, published 2024).
# Legend:
# DDR1 [1] = target: T1, DDR1 (Homo sapiens, UniProt Q08345); experiment: DDR1 LanthaScreen Europium Kinase Binding assay; conditions: binding affinity; IC50 converted in Ki using Cheng-Prusoff; read-out: Ki DDR1
# Description: (§1) DDR1 and DDR2 binding assays were performed using Life Technologies LanthaScreen™ Europium Kinase Binding assay. The compounds were incubated with 5 nM DDR1 (Carna Biosciences) or 5 nM DDR2 (Life Technologies) for 1 hour at room temperature in white 384-well OptiPlate (PerkinElmer), containing 20 nM or 10 nM Kinase Tracer 178 respectively and 2 nM Europium labelled anti-GST antibody (Life Technologies) in assay buffer (50 mM HEPES pH 7.5, 10 mM MgCI2, 1 mM EGTA and 0.01% BRIJ35). The ratio of fluorescence emission 665 nm/615 nm after excitation at 340 nm was obtained using the Tecan Spark 20M plate reader. IC50 values were determined in GraphPad Prism 7.0 software, using 4 parameter model: log(inhibitor) vs. response. IC50 values were converted in Ki using the Cheng-Prusoff equation (Ki=IC50/(1+[Tracer]/Kd).
# DDR2 = target: T2, DDR2 (Homo sapiens, UniProt Q16832); experiment: DDR2 LanthaScreen Europium Kinase Binding assay; conditions: binding affinity; IC50 converted in Ki using Cheng-Prusoff; read-out: Ki DDR2
# T2 sequence (Q16832 22-855): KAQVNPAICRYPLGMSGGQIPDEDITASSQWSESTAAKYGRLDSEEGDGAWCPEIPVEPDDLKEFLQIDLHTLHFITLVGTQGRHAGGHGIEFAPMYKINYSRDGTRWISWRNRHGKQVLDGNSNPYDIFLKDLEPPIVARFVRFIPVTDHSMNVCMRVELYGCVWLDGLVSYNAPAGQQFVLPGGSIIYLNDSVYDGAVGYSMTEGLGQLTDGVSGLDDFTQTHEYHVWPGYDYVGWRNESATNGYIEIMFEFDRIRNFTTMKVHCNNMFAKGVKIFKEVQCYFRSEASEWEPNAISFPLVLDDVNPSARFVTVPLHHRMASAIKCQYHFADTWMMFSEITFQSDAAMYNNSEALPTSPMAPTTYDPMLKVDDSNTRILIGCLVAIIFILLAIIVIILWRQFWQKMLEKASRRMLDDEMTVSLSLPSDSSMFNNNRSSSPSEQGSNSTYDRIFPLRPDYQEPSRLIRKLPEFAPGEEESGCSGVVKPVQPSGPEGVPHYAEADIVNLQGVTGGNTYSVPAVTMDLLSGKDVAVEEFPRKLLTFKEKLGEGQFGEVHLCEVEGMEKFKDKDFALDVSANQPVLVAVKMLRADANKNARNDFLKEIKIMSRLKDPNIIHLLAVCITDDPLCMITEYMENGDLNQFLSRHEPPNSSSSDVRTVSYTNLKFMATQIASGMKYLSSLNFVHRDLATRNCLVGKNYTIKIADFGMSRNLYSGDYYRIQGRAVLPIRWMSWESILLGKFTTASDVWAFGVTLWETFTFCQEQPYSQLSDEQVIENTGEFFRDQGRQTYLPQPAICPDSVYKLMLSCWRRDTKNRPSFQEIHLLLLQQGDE
# Description: as §1
# DDR1 [2] = target: T1, DDR1; experiment: DDR1 cell based assay (PathHunter U2OS DDR1, collagen II stimulation); conditions: U2OS-DDR1 cells, bovine Type II Collagen stimulation
# Description: The inhibition of DDR1 receptor activation by compounds was evaluated by PathHunter® U2OS DDR1 assay (Eurofins DiscoverX), according to the manufacturer's instructions. Briefly, U2OS-DDR1 cells were seeded in white 384-well plates at a density of 5000 cells/well and incubated for 2 hours at 37° C. and 5% CO2. Cells were then treated with compounds at different concentrations and incubated for 30 minutes, before stimulation with bovine Type II Collagen 20 μg/ml and incubation overnight at 37° C. and 5% CO2. PathHunter Detection Reagents were prepared according to the protocol provided by DiscoverX and 20 μl/well of this mix were added to each well. After incubating the plates for 1 hour at room temperature in the dark, luminescence signal was acquired with a plate reader. Raw data were normalized to vehicle control (0% for normalization) and positive control (100% for normalization; cells treated with 20 μg/ml collagen II) and IC50 parameters were calculated in GraphPad Prism 8.0 software, using sigmoidal dose-response curve fitting with variable slope.
# T1 sequence (Q08345 19-913): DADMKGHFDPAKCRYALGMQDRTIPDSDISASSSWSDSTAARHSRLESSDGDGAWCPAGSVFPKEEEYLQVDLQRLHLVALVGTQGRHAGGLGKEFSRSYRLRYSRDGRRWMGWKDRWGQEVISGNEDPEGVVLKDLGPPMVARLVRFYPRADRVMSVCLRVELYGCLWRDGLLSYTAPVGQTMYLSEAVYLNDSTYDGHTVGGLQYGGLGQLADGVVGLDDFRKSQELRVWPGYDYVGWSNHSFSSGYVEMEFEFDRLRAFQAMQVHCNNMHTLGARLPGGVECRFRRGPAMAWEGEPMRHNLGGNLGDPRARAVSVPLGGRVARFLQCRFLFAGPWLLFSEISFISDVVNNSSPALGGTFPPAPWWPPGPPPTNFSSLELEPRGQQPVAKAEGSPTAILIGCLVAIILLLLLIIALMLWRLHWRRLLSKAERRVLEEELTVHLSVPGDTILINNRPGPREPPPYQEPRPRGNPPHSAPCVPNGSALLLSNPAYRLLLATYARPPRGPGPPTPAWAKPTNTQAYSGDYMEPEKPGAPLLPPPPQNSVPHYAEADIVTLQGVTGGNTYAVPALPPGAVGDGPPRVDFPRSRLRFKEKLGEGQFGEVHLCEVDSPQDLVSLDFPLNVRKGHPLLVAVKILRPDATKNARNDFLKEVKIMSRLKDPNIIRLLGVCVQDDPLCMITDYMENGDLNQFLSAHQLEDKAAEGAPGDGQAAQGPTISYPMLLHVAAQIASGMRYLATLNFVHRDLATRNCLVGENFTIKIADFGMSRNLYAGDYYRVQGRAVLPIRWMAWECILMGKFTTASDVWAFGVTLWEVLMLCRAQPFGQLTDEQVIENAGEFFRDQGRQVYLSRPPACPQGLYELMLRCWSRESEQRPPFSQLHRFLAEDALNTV
SMILES,Ki (DDR1 [1]) [nM],Ki (DDR2) [nM],IC50 (DDR1 [2]) [nM]
"O=C(Nc1cc(OCCN2CCCC2)cc(C(F)(F)F)c1)c1ccc2c(c1)N(Cc1cnc3cnccn13)CC2 [Example 52, 1-(imidazo[1,2-a]pyrazin-3-ylmethyl)-N-(3-(2-(pyrrolidin-1-yl)ethoxy)-5-(trifluoromethyl)phenyl)indoline-6-carboxamide]",< 25,< 25,50 to 80
"O=C(Nc1cc(F)cc(OC(F)(F)F)c1)c1ccc2c(c1)N(Cc1cnc3ccccn13)CC2 [Example 56, N-(3-fluoro-5-(trifluoromethoxy)phenyl)-1-(imidazo[1,2-a]pyridin-3-ylmethyl)indoline-6-carboxamide]",< 25,< 25,25 to 50
"CN1CCN(Cc2cc(NC(=O)c3ccc4c(c3)N(C(=O)c3cnc5cnccn35)CC4)cc(C(F)(F)F)c2)CC1 [Example 15, 1-(imidazo[1,2-a]pyrazine-3-carbonyl)-N-(3-((4-methylpiperazin-1-yl)methyl)-5-(trifluoromethyl)phenyl)indoline-6-carboxamide]",< 25,< 25,50 to 80
"CC(C)(c1cc(NC(=O)c2ccc3c(c2)N(Cc2cnc4ccccn24)CC3)no1)C(F)(F)F [Example 58, 1-(imidazo[1,2-a]pyridin-3-ylmethyl)-N-(5-(1,1,1-trifluoro-2-methylpropan-2-yl)isoxazol-3-yl)indoline-6-carboxamide]",25 to 50,< 25,< 25
"O=C(Nc1cccc(OC(F)(F)F)c1)c1ccc2c(c1)N(Cc1ccc3[nH]cnc3c1)CC2 [Example 61, 1-((1H-benzo[d]imidazol-5-yl)methyl)-N-(3-(trifluoromethoxy)phenyl)indoline-6-carboxamide]",25 to 50,25 to 50,50 to 80
"Cc1n[nH]c2ncc(CN3CCc4ccc(C(=O)Nc5ccc(CN6CCCC6)c(C(F)(F)F)c5)cc43)cc12 [Example 70, 1-((3-methyl-1H-pyrazolo[3,4-b]pyridin-5-yl)methyl)-N-(4-(pyrrolidin-1-ylmethyl)-3-(trifluoromethyl)phenyl)indoline-6-carboxamide]",< 25,< 25,25 to 50
"O=C(Nc1cc(CN2CCCC2)cc(C(F)(F)F)c1)c1ccc2c(c1)N(Cc1cnc3cnccn13)CC2 [Example 50, 1-(imidazo[1,2-a]pyrazin-3-ylmethyl)-N-(3-(pyrrolidin-1-ylmethyl)-5-(trifluoromethyl)phenyl)indoline-6-carboxamide]",< 25,< 25,25 to 50

# Other lines, results leading:
Ki (DDR1 [1]) [nM],Ki (DDR2) [nM],IC50 (DDR1 [2]) [nM],SMILES
< 25,< 25,25 to 50,"Cc1cn(-c2cc(C(=O)Nc3ccc4c(c3)N(C(=O)c3cnc5cnccn35)CC4)cc(C(F)(F)F)c2)cn1 [Example 20, N-(1-(imidazo[1,2-a]pyrazine-3-carbonyl)indolin-6-yl)-3-(4-methyl-1H-imidazol-1-yl)-5-(trifluoromethyl)benzamide]"
25 to 50,25 to 50,50 to 80,"Cc1cn(-c2cc(NC(=O)c3ccc4c(c3)N(Cc3ccc5[nH]ncc5c3)CC4)cc(C(F)(F)F)c2)cn1 [Example 8, 1-((1H-indazol-5-yl)methyl)-N-(3-(4-methyl-1H-imidazol-1-yl)-5-(trifluoromethyl)phenyl)indoline-6-carboxamide]"
< 25,< 25,25 to 50,"Cc1cn(-c2cc(C(=O)Nc3ccc4c(c3)N(C(=O)c3cnc5ccccn35)CC4)cc(C(F)(F)F)c2)cn1 [Example 19, N-(1-(imidazo[1,2-a]pyridine-3-carbonyl)indolin-6-yl)-3-(4-methyl-1H-imidazol-1-yl)-5-(trifluoromethyl)benzamide]"
< 25,< 25,50 to 80,"Cc1cn(-c2cc(NC(=O)c3ccc4c(c3)N(C(=O)c3cnc5cnccn35)CC4C)cc(C(F)(F)F)c2)cn1 (stereo not drawn) [Example 29, 1-(imidazo[1,2-a]pyrazine-3-carbonyl)-3-methyl-N-(3-(4-methyl-1H-imidazol-1-yl)-5-(trifluoromethyl)phenyl)indoline-6-carboxamide]"
